Where two headings read alike, the source gives them in different places.
Legend:
WT MelBSt [1] = biological target: T1, WT MelBSt (Salmonella typhimurium, UniProt P30878); settings: ITC 25 °C, data from publication or averaged with more tests, read-out: Kd of substrate binding, Melibiose, cited from earlier work
T1 construct: Cys scanning mutagenesis for the full-length MelBSt; His10 (C); made in house; host or cells: E. coli DW2

WT MelBSt [2] = biological target: T1, WT MelBSt; experiment: biochemical; assay type: binding; settings: for Kd: Kd of substrate binding, α-NPG, ITC 25 °C
Method: All ITC ligand-binding assays were performed with the TA Instruments (Nano-ITC device) at 25 °C. In a typical experiment, the titrand (MelBSt) in the ITC sample cell was titrated with the specified titrant (placed in the Syringe) by an incremental injection of 2-µL aliquots at an interval of 300 s at a constant stirring rate of 250 r.p.m. All samples were degassed using a TA Instruments Degassing Station (model 6326) for 15 min prior to the titration. Data processing was performed with the NanoAnalyze (version 3.6.0 software) provided with the ITC equipment. The normalized heat changes were subtracted from the heat of dilution elicited by last few injections, where no further binding occurred; the corrected heat changes were plotted against the molar ratio of titrant versus titrand. The values for association constant (Ka) value were determined by fitting the data with a one-site independent-binding model. At most cases, the binding stoichiometry (N) number was fixed to 1 since it is a known parameter, which can restrain the data fitting and achieve more accurate results. The dissociation constant Kd = 1/Ka.
Supplementary Figure 1. ITC measurements. ITC measurements were performed at 25 °C as described in Methods. (a) Binding thermography. For all tests, ligands and proteins are buffer- […]
(1 picture or pasted object on this page, not shown here) […]
matched. For melibiose binding measurements, a solution of 80 mM or 10 mM in the absence or presence of NaCl at 100 mM, was injected into the ITC sample cell containing the WT MelBSt at 80 μM without or with 100 mM NaCl, respectively. With the D59C mutant, […] was used. For α-NPG binding measurements, 0.5 mM or 0.4 mM solution was used to titrate the WT or D59C mutant at 50 μM in the absence or presence or 100 mM NaCl, respectively. For the Na+ or Li+ binding measurements, 5 mM or 2 mM solution was used to titrate WT MelBSt at 80 μM without or with 50 mM melibiose, respectively; 40 mM solutions was used to titrate the D59C mutant. (b) binding isotherm. Curve fit was carried out with a one-site independent-binding model included in the NanoAnalyze software (version 3.6.0).

D59C MelBSt = biological target: T2, D59C MelBSt (Salmonella typhimurium, UniProt P30878, D59C); experiment: Trp→dansyl galactoside (D2G) FRET time trace and IC50 of D2G displacement (D59C); assay type: binding; settings: IC50 of galactoside displacement on bound D2G, α-NPG, 10 μM D2G
T2 construct: Cys scanning mutagenesis for the full-length MelBSt; His10 (C); made in house; host or cells: E. coli DW2
Method: Fig. 1 Functional characterizations. a [^3H] Melibiose transport time course with intact cells. […] Inset, melibiose fermentation assay. Transformants with DW2 strain were plated on MacConkey agar plates containing 30 mM melibiose as the sole carbohydrate source and pH sensor neutral red, and incubated at 37 °C for 16–18 h before imaging. Number of tests = 3, from different batch of cells or duplicate measurements from same batch of sample. b Ligand binding by Trp→dansyl galactoside (D^2G) FRET assay. Purified proteins at 1 μM concentration in 20 mM Tris-HCl, pH 7.5, 100 mM CholCl, 10% glycerol, and 0.03% UDM were subjected to steady-state fluorescence measurements as described in Methods. On the time-trace, 1.8 μL of 1 mM D^2G at 10 μM was added into 180 μL of protein solutions at 1-min point, followed by supplying 10 μL of 5 mM DDMB or 5 mM α-NPG to displace the bound D^2G. For testing Na^+ or Li^+ binding, they are added into the solution before displacement with the second sugar. The structure of DDMB or α-NPG is shown in a chair form, and the carbon positions are labeled. Glycosidic bonds are indicated by arrows. Both are α-galactosides containing a substituent at the anomeric carbon-1. The data were from duplicate measurements.
Steady-state fluorescence measurements were performed with an AMINCO-Bowman series 2 spectrometer with purified MelBSt at 1 μM in 20 mM Tris-HCl, pH 7.5, 100 mM CholCl, 10% glycerol, 0.03% UDM. Using an excitation wavelength at 290 nm, the emission intensity was recorded at 490 nm. On a time-trace, D^2G, NaCl or LiCl, then DDMB or α-NPG, were sequentially added into the protein solutions at a 1 min-interval. […] An identical volume of water was used for the control. The decrease in intensity after each addition of DDMB or α-NPG was corrected by the dilution effect and plotted as a function of the accumulated α-NPG concentrations or estimated DDMB concentrations. The 50% inhibitory concentration (IC50) was determined by fitting a hyperbolic function to the data (OriginPro 2020b). The final concentration of each detergent is estimated to be 234 μM, which is less than their CMC value for (DDMB, 295 μM).
Supplementary Figure 2. Determination of DDMB binding affinity to MelBSt. (a) Titration with DDMB or a-NPG. MelBSt in 20 mM Tris-HCl, pH 7.5, 100 mM CholCl, 10% glycerol, 0.03% UDM without (1) or with 100 mM NaCl (2) were added with D2G at 10 μM at 1-min time point as indicated by triangle symbols on the Trp®dansyl FRET time trace. Starting at the 2-min of time point, DDMB or a-NPG solution was supplemented consecutively at a 1-min interval into MelBSt solution till no change in fluorescence intensity reached as indicated in star symbols. DDM and UDM were used as negative controls. 1% DDM or UDM was titrated into the mixture, The […]
At 2-min time point, additions of galactosides were colored in pink, a-NPG in yellow, UDM in blue, DDM in light blue, water in gray traces, respectively. (b) IC50 determination. The intensity decrease at each titration were corrected by the dilution effect, and plotted as a function of the accumulated DDMB or α-NPG concentration. The 50% inhibitory concentration (IC50) was determined by fitting the data to a hyperbolic function (OriginPro 2020b). Results are presented in […]
(1 picture or pasted object on this page, not shown here)

T1 sequence (P30878 whole entry): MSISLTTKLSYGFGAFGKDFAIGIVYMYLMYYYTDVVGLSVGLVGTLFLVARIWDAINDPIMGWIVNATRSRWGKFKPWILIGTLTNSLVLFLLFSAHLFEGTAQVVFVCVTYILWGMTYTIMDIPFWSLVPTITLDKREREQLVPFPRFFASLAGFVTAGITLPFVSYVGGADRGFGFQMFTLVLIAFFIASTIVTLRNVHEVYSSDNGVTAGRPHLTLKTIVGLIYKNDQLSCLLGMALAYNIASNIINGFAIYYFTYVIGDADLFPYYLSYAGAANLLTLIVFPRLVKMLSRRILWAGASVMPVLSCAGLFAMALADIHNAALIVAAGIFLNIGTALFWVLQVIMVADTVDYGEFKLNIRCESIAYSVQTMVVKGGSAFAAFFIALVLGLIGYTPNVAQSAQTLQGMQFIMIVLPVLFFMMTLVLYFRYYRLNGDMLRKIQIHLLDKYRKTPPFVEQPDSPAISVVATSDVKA
T2 sequence (P30878 whole entry D59C): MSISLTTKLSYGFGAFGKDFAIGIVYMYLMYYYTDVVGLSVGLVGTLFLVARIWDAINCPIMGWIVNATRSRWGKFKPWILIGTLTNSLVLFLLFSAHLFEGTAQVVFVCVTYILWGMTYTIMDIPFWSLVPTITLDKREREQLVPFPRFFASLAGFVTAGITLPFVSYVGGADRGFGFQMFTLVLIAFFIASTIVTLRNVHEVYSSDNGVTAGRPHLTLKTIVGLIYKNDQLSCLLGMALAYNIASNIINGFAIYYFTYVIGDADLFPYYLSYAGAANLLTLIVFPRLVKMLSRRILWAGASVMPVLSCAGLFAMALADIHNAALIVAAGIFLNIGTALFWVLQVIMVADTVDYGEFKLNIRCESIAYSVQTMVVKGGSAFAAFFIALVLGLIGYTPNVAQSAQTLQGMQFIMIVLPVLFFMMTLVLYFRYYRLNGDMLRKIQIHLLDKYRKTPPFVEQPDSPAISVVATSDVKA

| Compound | Kd (WT MelBSt [1]; Apo) | Kd (WT MelBSt [1]; Na+ (100 mM)) | Kd (WT MelBSt [2]; Apo) | Kd (WT MelBSt [2]; Na+ (100 mM)) | greater affinity compared to the native substrate melibiose (WT MelBSt [2]; from Table 1) | IC50 (D59C MelBSt; Apo) | IC50 (D59C MelBSt; Na+ (100 mM)) |
| --- | --- | --- | --- | --- | --- | --- | --- |
| OC[C@H]1O[C@H](OCC2O[C@@H](O)[C@H](O)[C@@H](O)[C@@H]2O)[C@H](O)[C@@H](O)[C@H]1O (stereo partly shown) [Melibiose] | 9280 ± 230 µM | 1090 ± 60 µM |  |  |  |  |  |
| O=[N+]([O-])c1ccc(OC2OC(CO)C(O)C(O)C2O)cc1 [α-NPG, 4-nitrophenyl-α-D-galactopyranoside] |  |  | 43.2 ± 0.62 µM | 25.7 ± 4.42 µM | 100 fold | 22.1 ± 5.75 µM | 21.3 ± 1.67 µM |

— PMC8329300, “X-ray crystallography reveals molecular recognition mechanism for sugar binding in a melibiose transporter MelB” (Communications Biology, 2021)
